Reference: ChEMBL document CHEMBL1143692, “Modulating paclitaxel bioavailability for targeting prostate cancer” (Bioorg Med Chem, 2007)
pIC50: −log10 of the molar value. Starred links: 1 amine or outer side, 2 acyl side, 3 side chain; linkers in the order of their positions; H or OH if unused. Residues, ends and D or L forms follow the SMILES beside them. *: point of attachment. Morpholide = C1CN(*)CCO1; CO = O=C([*:1])[*:2]

Assays:
[1] = tested on: prostate-specific antigen; assay: Half life in Tris buffer at pH 7.8, 37 degC for 48 hrs in presence of prostate-specific antigen at 100 uM; assay type: ADME, Prostate gland; details: Tris buffer with prostate-specific antigen
[2] = tested on: Serum; assay: Degradation in serum at 100 uM after 48 hrs; assay type: functional, Homo sapiens
[3] = tested on: Plasma; assay: Degradation in plasma at 100 uM after 48 hrs; assay type: functional, Homo sapiens
[4] = Half life in serum at 100 uM after 48 hrs at 37 degC; assay type: ADME, cell-free; details: human
[5] = tested on: TSU; assay: Growth inhibition of human TSU cells at 1 nM; assay type: functional
[6] = Cytotoxicity against human CWR22Rv1 cells after 96 hrs; assay type: functional, cell-based, CWR22R; details: 22Rv1, 96 h
[7] = Growth inhibition of human CWR22Rv1 cells; assay type: functional, cell-based, CWR22R; details: 22Rv1
[8] = tested on: DU-145; assay: Growth inhibition of human DU145 cells; assay type: functional, cell-based
[9] = tested on: TSU; assay: Growth inhibition of human TSU cells; assay type: functional, cell-based
[10] = tested on: CWR22R; assay: Toxicity against human CWR22Rv1 cells upto 100 uM; assay type: functional, cell-based
[11] = tested on: DU-145; assay: Toxicity against human DU145 cells upto 100 uM; assay type: functional, cell-based
[12] = tested on: TSU; assay: Toxicity against human TSU cells upto 100 uM; assay type: functional, cell-based
[13] = species: Homo sapiens; assay: Activity at prostate-specific antigen hydrolysis at pH 7.8; assay type: tissue-based; details: Prostate gland
[14] = species: Homo sapiens; assay: Ratio of […] for prostate-specific antigen; details: Prostate gland

| half-life at 100 µM [1] [h] | half-life at 100 µM [4] [h] | SMILES | Activity [2] [%] | Percent degraded [3] [%] | inhibition at 0.001 µM [5] [%] | also measured |
| --- | --- | --- | --- | --- | --- | --- |
| 10 | – | CC(=O)O[C@H]1C(=O)[C@]2(C)[C@@H](O)C[C@@H]3OC[C@]3(OC(C)=O)[C@@H]2[C@H](OC(=O)c2ccccc2)[C@]2(O)C[C@@H](OC(=O)[C@H](OC(=O)N(C)CCNC(=O)[C@H](CCC(N)=O)NC(=O)[C@H](CC(C)C)NC(=O)[C@H](CCCCN)NC(=O)[C@H](CO)NC(=O)[C@H](CO)NC(=O)[C@H](Cc3c[nH]cn3)NC(=O)N3CCOCC3)[C@@H](NC(=O)c3ccccc3)c3ccccc3)C(C)=C1C2(C)C | <2 | <3 | – | – |
| 12 | 1 | CC(=O)O[C@H]1C(=O)[C@]2(C)[C@@H](O)C[C@@H]3OC[C@]3(OC(C)=O)[C@@H]2[C@H](OC(=O)c2ccccc2)[C@]2(O)C[C@@H](OC(=O)[C@H](OC(=O)OCc3ccc(NC(=O)[C@H](CCC(N)=O)NC(=O)[C@H](CC(C)C)NC(=O)[C@H](CCCCN)NC(=O)[C@H](CO)NC(=O)[C@H](CO)NC(=O)[C@H](Cc4c[nH]cn4)NC(=O)N4CCOCC4)cc3)[C@@H](NC(=O)c3ccccc3)c3ccccc3)C(C)=C1C2(C)C | 87 | 10 | 30 | – |

Second part, the compound before the results:

| SMILES | half-life at 100 µM [1] [h] | half-life at 100 µM [4] [h] | Activity [2] [%] | Percent degraded [3] [%] | inhibition at 0.001 µM [5] [%] | also measured |
| --- | --- | --- | --- | --- | --- | --- |
| CC(=O)O[C@H]1C(=O)[C@]2(C)[C@@H](O)C[C@@H]3OC[C@]3(OC(C)=O)[C@@H]2[C@H](OC(=O)c2ccccc2)[C@]2(O)C[C@@H](OC(=O)[C@H](OC(=O)N(C)CCNC(=O)[C@H](CCC(N)=O)NC(=O)[C@H](Cc3ccc(O)cc3)NC(=O)[C@H](CCCCN)NC(=O)[C@H](CO)NC(=O)[C@H](CO)NC(=O)N3CCOCC3)[C@@H](NC(=O)c3ccccc3)c3ccccc3)C(C)=C1C2(C)C | 6 | – | <2 | <3 | – | pIC50 [6]: 6.00; pIC50 [7]: > 9.00; pIC50 [8]: > 9.00; pIC50 [9]: > 9.00 |
| CC(=O)O[C@H]1C(=O)[C@@]2(C)[C@H]([C@H](OC(=O)c3ccccc3)[C@]3(O)C[C@H](OC(=O)[C@H](O)[C@@H](NC(=O)c4ccccc4)c4ccccc4)C(C)=C1C3(C)C)[C@]1(OC(C)=O)CO[C@@H]1C[C@@H]2O [PACLITAXEL] | – | – | – | – | 90 | – |
| NCCCC[C@H](NC(=O)[C@H](CO)NC(=O)[C@H](CO)NC(=O)N1CCOCC1)C(=O)N[C@@H](Cc1ccc(O)cc1)C(=O)N[C@@H](CCC(N)=O)C(=O)O ({Morpholide-CO}-SSKYQ-OH) | – | – | – | – | – | Activity [10]: Not toxic; Activity [11]: Not toxic; Activity [12]: Not toxic |
| CC(=O)O[C@H]1C(=O)[C@]2(C)[C@@H](OC(=O)OCc3ccc(NC(=O)[C@H](CCC(N)=O)NC(=O)[C@H](CC(C)C)NC(=O)[C@H](CCCCN)NC(=O)[C@H](CO)NC(=O)[C@H](CO)NC(=O)[C@H](Cc4c[nH]cn4)NC(=O)N4CCOCC4)cc3)C[C@@H]3OC[C@]3(OC(C)=O)[C@@H]2[C@H](OC(=O)c2ccccc2)[C@]2(O)C[C@@H](OC(=O)[C@H](O)[C@@H](NC(=O)c3ccccc3)c3ccccc3)C(C)=C1C2(C)C | 14 | 1.5 | 92 | 7 | 30 | Km [13]: 216 µM; kcat [13]: 0.00585 s⁻¹; kcat/Km [14]: 27 M⁻¹ s⁻¹ |
